{"source": "patent US8071598B2", "about": "“3,9-diazabicyclo[3.3.1]nonane derivatives and their use as monoamine neurotransmitter re-uptake inhibitors” (Neurosearch A/S, priority 2006, dated 2011)", "key": {"[1]": {"target": "T1, reuptake of dopamine (DA) in synaptosomes (Rattus norvegicus, UniProt P23977)", "T1 construct": "in synaptosomes as described in WO 97/16451; from tissue; host or cells: synaptosomes (brain tissue)", "T1 sequence (P23977 whole entry)": "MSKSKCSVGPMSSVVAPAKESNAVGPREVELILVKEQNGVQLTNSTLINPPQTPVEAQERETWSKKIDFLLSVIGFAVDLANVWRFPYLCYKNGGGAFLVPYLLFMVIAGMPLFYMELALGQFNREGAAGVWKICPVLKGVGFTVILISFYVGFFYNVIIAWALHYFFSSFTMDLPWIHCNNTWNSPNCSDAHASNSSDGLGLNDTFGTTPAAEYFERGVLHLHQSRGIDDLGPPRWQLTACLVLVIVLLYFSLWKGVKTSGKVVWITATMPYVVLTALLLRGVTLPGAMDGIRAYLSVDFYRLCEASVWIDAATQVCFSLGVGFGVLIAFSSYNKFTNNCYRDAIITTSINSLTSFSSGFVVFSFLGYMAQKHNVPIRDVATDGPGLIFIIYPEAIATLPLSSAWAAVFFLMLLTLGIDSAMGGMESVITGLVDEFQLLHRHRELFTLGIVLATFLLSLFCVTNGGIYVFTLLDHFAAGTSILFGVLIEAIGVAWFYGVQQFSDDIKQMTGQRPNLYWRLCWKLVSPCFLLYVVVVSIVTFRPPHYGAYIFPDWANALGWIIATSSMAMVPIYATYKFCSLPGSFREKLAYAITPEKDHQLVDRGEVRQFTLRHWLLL", "assay": "Inhibition of dopamine (DA) reuptake in synaptosomes", "type": "biochemical"}, "[2]": {"target": "T2, reuptake of noradrenaline (NA) in synaptosomes (Rattus norvegicus, UniProt Q63380)", "T2 construct": "in synaptosomes as described in WO 97/16451; from tissue; host or cells: synaptosomes (brain tissue)", "T2 sequence (Q63380 1-617)": "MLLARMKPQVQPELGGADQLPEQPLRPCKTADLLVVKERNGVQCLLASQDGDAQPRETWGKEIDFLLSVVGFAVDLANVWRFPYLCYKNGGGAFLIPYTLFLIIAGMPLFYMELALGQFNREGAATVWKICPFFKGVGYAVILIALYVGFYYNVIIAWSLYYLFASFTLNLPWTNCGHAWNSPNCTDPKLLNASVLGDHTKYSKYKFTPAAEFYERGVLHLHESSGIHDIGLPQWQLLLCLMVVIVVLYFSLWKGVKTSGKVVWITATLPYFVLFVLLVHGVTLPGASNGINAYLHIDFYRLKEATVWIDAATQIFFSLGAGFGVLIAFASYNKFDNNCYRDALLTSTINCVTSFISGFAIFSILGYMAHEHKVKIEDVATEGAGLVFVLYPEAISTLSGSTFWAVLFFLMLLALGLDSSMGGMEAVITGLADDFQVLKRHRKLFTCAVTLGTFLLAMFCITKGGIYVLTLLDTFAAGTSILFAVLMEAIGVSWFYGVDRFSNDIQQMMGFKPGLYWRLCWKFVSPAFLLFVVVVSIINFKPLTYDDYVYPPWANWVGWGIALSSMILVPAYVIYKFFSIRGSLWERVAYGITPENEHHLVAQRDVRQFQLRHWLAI", "assay": "Inhibition of noradrenaline (NA) reuptake in synaptosomes", "type": "biochemical"}, "[3]": {"target": "T3, reuptake of serotonine (5-HT) in synaptosomes (Rattus norvegicus, UniProt P31652)", "T3 construct": "in synaptosomes as described in WO 97/16451; from tissue; host or cells: synaptosomes (brain tissue)", "T3 sequence (P31652 whole entry)": "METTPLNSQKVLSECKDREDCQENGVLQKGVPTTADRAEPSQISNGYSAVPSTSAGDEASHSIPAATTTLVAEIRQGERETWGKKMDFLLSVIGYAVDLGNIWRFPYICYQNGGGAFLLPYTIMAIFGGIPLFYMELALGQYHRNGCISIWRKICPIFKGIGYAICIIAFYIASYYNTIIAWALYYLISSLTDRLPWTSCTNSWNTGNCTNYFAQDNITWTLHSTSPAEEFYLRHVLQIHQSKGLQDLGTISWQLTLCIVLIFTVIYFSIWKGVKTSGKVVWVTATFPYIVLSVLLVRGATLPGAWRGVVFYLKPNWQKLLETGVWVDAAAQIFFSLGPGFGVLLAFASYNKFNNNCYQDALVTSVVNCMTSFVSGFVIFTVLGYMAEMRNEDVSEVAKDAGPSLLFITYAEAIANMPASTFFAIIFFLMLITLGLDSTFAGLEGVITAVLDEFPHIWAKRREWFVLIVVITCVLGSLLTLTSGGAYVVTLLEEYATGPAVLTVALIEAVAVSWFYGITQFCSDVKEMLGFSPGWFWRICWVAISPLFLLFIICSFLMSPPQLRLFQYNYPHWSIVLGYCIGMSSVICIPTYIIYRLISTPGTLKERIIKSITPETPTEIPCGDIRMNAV", "assay": "Inhibition of serotonine (5-HT) reuptake in synaptosomes", "type": "biochemical", "protocol": "A number of compounds were tested for their ability to inhibit the reuptake of the monoamine neurotransmitters dopamine (DA) noradrenaline (NA) and serotonine (5-HT) in synaptosomes as described in WO 97/16451.\nThe test values are given as IC50 (the concentration (μM) of the test substance which inhibits the specific binding of ^3H-DA, ^3H-NA, or ^3H-5-HT by 50%)."}}, "note": "Where a name gives a salt, the structure may show the parent alone. Read-outs that look alike come from different tables or passages of the source."}
{"smiles": "COc1ccc2cc(N3CC4CCCC(C3)N4C)ccc2c1", "note": "(as salt: fumaric acid salt) [1st compound of Method C, 3-(6-Methoxy-naphthalen-2-yl)-9-methyl-3,9-diaza-bicyclo[3.3.1]nonane]", "values": [{"measurement": "melting point", "result": "190 to 198.3", "unit": "°C"}]}
{"smiles": "Clc1ccc(N2CC3CCCC(C2)N3)cc1Cl", "note": "(as salt: hydrochloric acid salt) [1st compound of Method B, 3-(3,4-Dichloro-phenyl)-3,9-diaza-bicyclo[3.3.1]nonane]", "values": [{"measurement": "melting point", "result": 295.4, "unit": "°C"}]}
{"smiles": "Clc1ccc(N2CC3CCCC(C2)N3)cc1Cl", "note": "[1st compound of Method B, 3-(3,4-Dichloro-phenyl)-3,9-diaza-bicyclo[3.3.1]nonane]", "values": [{"measurement": "IC50", "setting": "[1]", "result": 160, "unit": "nM"}, {"measurement": "IC50", "setting": "[2]", "result": 7.4, "unit": "nM"}, {"measurement": "IC50", "setting": "[3]", "result": 0.69, "unit": "nM"}]}
{"smiles": "COc1ccc2cc(N3CC4CCCC(C3)N4C)ccc2c1", "note": "[1st compound of Method C, 3-(6-Methoxy-naphthalen-2-yl)-9-methyl-3,9-diaza-bicyclo[3.3.1]nonane]", "values": [{"measurement": "IC50", "setting": "[1]; synaptosomes, 3H-DA, read-out: DA-uptake IC50", "result": 230, "unit": "nM"}, {"measurement": "IC50", "setting": "[2]", "result": 19, "unit": "nM"}, {"measurement": "IC50", "setting": "[3]", "result": 8.1, "unit": "nM"}]}
{"smiles": "CN1C2CCCC1CN(c1ccc3cc(O)ccc3c1)C2", "note": "[3rd compound of Method C, 6-(9-Methyl-3,9-diaza-bicyclo[3.3.1]non-3-yl)-naphthalen-2-ol]", "values": [{"measurement": "IC50", "setting": "[1]", "result": 54, "unit": "nM"}, {"measurement": "IC50", "setting": "[2]; synaptosomes, 3H-NA, read-out: NA-uptake IC50", "result": 110, "unit": "nM"}, {"measurement": "IC50", "setting": "[3]", "result": 7.9, "unit": "nM"}]}
